Reference: Sander's compilation of Henry's law constants

Assays:
[1] = Henry solubility constant Hcp at 303 K (mol/(m3 Pa))
[2] = Henry solubility constant Hcp at 298.15 K (mol/(m3 Pa))
[3] = Henry solubility constant Hcp at 295 K (mol/(m3 Pa)); details: reference: Felder et al. (1986)
[4] = Henry solubility constant Hcp at 296 K (mol/(m3 Pa))
[5] = Henry solubility constant Hcp at 310 K (mol/(m3 Pa))
[6] = reference: Meynier et al. (2003)
[7] = reference: Fendinger et al. (1989)
[8] = reference: Miller and Stuart (2000)
[9] = reference: Arp and Schmidt (2004)
[10] = reference: Warner et al. (1980)
[11] = reference: Hartkopf and Karger (1973)

CCCCCOC(C)=O [pentyl ethanoate]
Henry solubility constant Hcp at 303 K [1, 6]: 0.13
Henry solubility constant Hcp ([2]; reference: Kieckbusch and King (1979b)): 0.028

CCCCC(CC)COC(=O)CCCCC(=O)OCC(CC)CCCC (stereo unspecified) [di-(2-ethylhexyl)-adipate]
Henry solubility constant Hcp at 295 K [3]: 23

ClC1C(Cl)C(Cl)C(Cl)C(Cl)C1Cl (stereo unspecified) [γ-1,2,3,4,5,6-hexachlorocyclohexane]
Henry solubility constant Hcp at 296 K ([4]; reference: Fendinger and Glotfelty (1988)): 5
Henry solubility constant Hcp at 296 K [4, 7]: 4.9
Henry solubility constant Hcp ([2]; reference: Kucklick et al. (1991)): 2.8
Henry solubility constant Hcp ([2]; reference: Sahsuvar et al. (2003)): 4.3
Henry solubility constant Hcp ([2]; reference: Xie et al. (2004)): 6

Clc1ccc(C(c2ccc(Cl)cc2)C(Cl)(Cl)Cl)cc1 [1,1,1-trichloro-2,2-bis-(4-chlorophenyl)-ethane]
Henry solubility constant Hcp at 296 K [4, 7]: 0.77
Henry solubility constant Hcp [2, 7]: 1.2

CC(=O)OCCC(C)C [3-methylbutyl ethanoate]
Henry solubility constant Hcp at 303 K [1, 6]: 0.088
Henry solubility constant Hcp ([2]; reference: Ammari and Schroen (2019)): 0.022

CCC(C)(C)OC [2-methoxy-2-methylbutane]
Henry solubility constant Hcp at 296 K [4, 8]: 0.0052
Henry solubility constant Hcp [2, 9]: 0.0086
Henry solubility constant Hcp ([2]; reference: Haimi et al. (2006)): 0.01
Henry solubility constant Hcp ([2]; reference: Hwang et al. (2010)): 0.053
Henry solubility constant Hcp ([2]; reference: Park et al. (1997)): 0.007

[HH] [hydrogen]
Henry solubility constant Hcp at 310 K ([5]; reference: Longo et al. (1970)): 7.2e-06
Henry solubility constant Hcp at 310 K ([5]; reference: Power and Stegall (1970)): 7.2e-06
Henry solubility constant Hcp at 303 K ([1]; reference: Ruetschi and Amlie (1966)): 7.5e-06
Henry solubility constant Hcp ([2]; reference: Bohr and Bock (1891)): 7.5e-06
Henry solubility constant Hcp ([2]; reference: Braun (1900)): 7.7e-06
Henry solubility constant Hcp ([2]; reference: Bunsen (1855a)): 8.5e-06
Henry solubility constant Hcp ([2]; reference: Crozier and Yamamoto (1974)): 7.7e-06
Henry solubility constant Hcp ([2]; reference: Geffcken (1904)): 7.8e-06
Henry solubility constant Hcp ([2]; reference: Gordon et al. (1977)): 7.7e-06
Henry solubility constant Hcp ([2]; reference: Morrison and Billett (1952)): 7.8e-06
Henry solubility constant Hcp ([2]; reference: Schmidt (1979)): 7.8e-06
Henry solubility constant Hcp ([2]; reference: Timofejew (1890)): 7.8e-06
Henry solubility constant Hcp ([2]; reference: Winkler (1891a)): 7.7e-06

CCCCC=O [pentanal]
Henry solubility constant Hcp at 296 K ([4]; reference: Liu et al. (2015)): 0.068
Henry solubility constant Hcp ([2]; reference: Buttery et al. (1965)): 0.058
Henry solubility constant Hcp ([2]; reference: Ji and Evans (2007)): 0.071

CC(C)OC(C)C [diisopropyl ether]
Henry solubility constant Hcp at 296 K [4, 8]: 0.0043
Henry solubility constant Hcp [2, 9]: 0.0039
Henry solubility constant Hcp ([2]; reference: Hwang et al. (2010)): 0.015
Henry solubility constant Hcp ([2]; reference: Nielsen et al. (1994)): 0.0048

ClC1=C(Cl)[C@]2(Cl)C3C(Cl)C(Cl)CC3[C@@]1(Cl)C2(Cl)Cl (stereo partly specified) [chlordane]
Henry solubility constant Hcp at 296 K [4, 7]: 0.18
Henry solubility constant Hcp [2, 7]: 0.12
Henry solubility constant Hcp [2, 10]: 0.21

CCc1ccccc1 [ethylbenzene]
Henry solubility constant Hcp at 296 K [4, 8]: 0.0016
Henry solubility constant Hcp ([2]; reference: Allen et al. (1998)): 0.0013
Henry solubility constant Hcp ([2]; reference: Bissonette et al. (1990)): 0.0011
Henry solubility constant Hcp ([2]; reference: Brown and Wasik (1974)): 0.0013
Henry solubility constant Hcp ([2]; reference: Ervin et al. (1980)): 0.0014
Henry solubility constant Hcp [2, 11]: 0.0016
Henry solubility constant Hcp ([2]; reference: Heidman et al. (1985)): 0.0013
Henry solubility constant Hcp ([2]; reference: Li et al. (2008)): 0.0014
Henry solubility constant Hcp ([2]; reference: Lodge and Danso (2007)): 0.0011
Henry solubility constant Hcp ([2]; reference: Mackay et al. (1979)): 0.0012
Henry solubility constant Hcp ([2]; reference: Perlinger et al. (1993)): 0.0013
Henry solubility constant Hcp ([2]; reference: Robbins et al. (1993)): 0.0013
Henry solubility constant Hcp ([2]; reference: Sanemasa et al. (1981)): 0.0014
Henry solubility constant Hcp ([2]; reference: Sieg et al. (2009)): 0.0013
Henry solubility constant Hcp ([2]; reference: Turner et al. (1996)): 0.0011
Henry solubility constant Hcp [2, 10]: 0.0015

CCCCC(=O)OCC [ethyl pentanoate]
Henry solubility constant Hcp at 303 K [1, 6]: 0.14

CC[N+](=O)[O-] [nitroethane]
Henry solubility constant Hcp at 303 K ([1]; reference: Friant and Suffet (1979)): 0.14
Henry solubility constant Hcp ([2]; reference: Beneš and Dohnal (1999)): 0.22

CCOC(C)(C)C [ethyl tert-butyl ether]
Henry solubility constant Hcp at 296 K [4, 8]: 0.0042
Henry solubility constant Hcp [2, 9]: 0.0061
Henry solubility constant Hcp ([2]; reference: Haimi et al. (2006)): 0.0064
Henry solubility constant Hcp ([2]; reference: Hwang et al. (2010)): 0.12
Henry solubility constant Hcp ([2]; reference: Sieg et al. (2009)): 0.0063

CCC(=O)CC [3-pentanone]
Henry solubility constant Hcp at 303 K ([1]; reference: Saylor et al. (1938)): 9.7e-05
Henry solubility constant Hcp ([2]; reference: Hovorka et al. (2019)): 0.11
Henry solubility constant Hcp ([2]; reference: Ji and Evans (2007)): 0.16

C[Si]1(C)O[Si](C)(C)O[Si](C)(C)O[Si](C)(C)O[Si](C)(C)O1 [decamethylcyclopentasiloxane]
Henry solubility constant Hcp at 296 K ([4]; reference: David et al. (2000)): 7.4e-05
Henry solubility constant Hcp ([2]; reference: Xu and Kropscott (2012)): 3e-07
Henry solubility constant Hcp ([2]; reference: Xu and Kropscott (2014)): 2.8e-07

CCOC=O [ethyl methanoate]
Henry solubility constant Hcp at 303 K ([1]; reference: Richon et al. (1985)): 0.023
Henry solubility constant Hcp [2, 11]: 0.0019
Henry solubility constant Hcp ([2]; reference: Kutsuna et al. (2005)): 0.034
Henry solubility constant Hcp ([2]; reference: Wittig et al. (2001)): 0.04

CCC/C=C/C=O [(E)-2-hexenal]
Henry solubility constant Hcp at 303 K [1, 6]: 0.9
Henry solubility constant Hcp ([2]; reference: Buttery et al. (1971)): 0.2
